Test systems include OVCAR-8 ovarian; CCRF-CEM leukemia; BT-549 breast; COLO 205 colon; SF-295 CNS; DU-145 prostate; MOLT-4 leukemia; HCC-2998 colon; RPMI-8226 leukemia; EKVX NSCLC.
What all share (assay): inhibition of tumour cell growth, NCI panel, 48 h

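The compound was tested at five concentrations on cells cultured in 96-well plates, with a 48-hour exposure period. GI50: concentration for 50% inhibition of growth. TGI marks complete inhibition of growth.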

The results in this text go back to PubChem BioAssay (NCI).

As to `O=C(c1cccnc1)c1cc(-c2ccccn2)c(=O)n2ccccc12`, the GI50 with OVCAR-8 ovarian, with CCRF-CEM leukemia, with BT-549 breast, with COLO 205 colon, in the assay on SF-295 CNS and with DU-145 prostate was above 100 µM throughout. Further, the GI50 with MOLT-4 leukemia, in the assay on HCC-2998 colon, with RPMI-8226 leukemia and in the assay with EKVX NSCLC was above 100 µM in each case. The TGI in the assay on OVCAR-8 ovarian, with CCRF-CEM leukemia, in the assay with BT-549 breast, in the assay on COLO 205 colon, in the assay with SF-295 CNS and with DU-145 prostate was above 100 µM in each case. In addition, the TGI with MOLT-4 leukemia, in the assay on HCC-2998 colon, in the assay with RPMI-8226 leukemia and with EKVX NSCLC was above 100 µM each time.

`Cn1cc(-c2ccc(-c3cn(C)c4ccc(Cl)cc34)s2)c2cc(Cl)ccc21`: the GI50 in the assay on OVCAR-8 ovarian, in the assay on CCRF-CEM leukemia, in the assay on BT-549 breast, in the assay on COLO 205 colon, with SF-295 CNS and in the assay on DU-145 prostate was above 100 µM each time. For the same molecule, the GI50 in the assay with MOLT-4 leukemia, in the assay with HCC-2998 colon, with RPMI-8226 leukemia and with EKVX NSCLC was above 100 µM throughout. In addition, the TGI in the assay on OVCAR-8 ovarian, with CCRF-CEM leukemia, with BT-549 breast, with COLO 205 colon, with SF-295 CNS and with DU-145 prostate was above 100 µM throughout. Moreover, the TGI in the assay with MOLT-4 leukemia, with HCC-2998 colon, in the assay on RPMI-8226 leukemia and with EKVX NSCLC was above 100 µM in each case.
